Data: ChEMBL document CHEMBL4033759, “Photoaffinity Labeling of the Human A2A Adenosine Receptor and Cross-link Position Analysis by Mass Spectrometry” (ACS Med Chem Lett, 2017)
pKd, pKi: −log10 of the molar value.

Legend:
[1] = biological target: T1, Adenosine receptor A2a (Homo sapiens, UniProt P29274); assay: Displacement of MRS5346 from C-terminal 10xHis and 1D4-tagged C-terminal-truncated human A2A adenosine receptor (1 to 316 residues) expressed in Pichia pastoris expression system after 1 hr by fluorescence polarization assay
T1 sequence (P29274 whole entry, the tested form may be a part): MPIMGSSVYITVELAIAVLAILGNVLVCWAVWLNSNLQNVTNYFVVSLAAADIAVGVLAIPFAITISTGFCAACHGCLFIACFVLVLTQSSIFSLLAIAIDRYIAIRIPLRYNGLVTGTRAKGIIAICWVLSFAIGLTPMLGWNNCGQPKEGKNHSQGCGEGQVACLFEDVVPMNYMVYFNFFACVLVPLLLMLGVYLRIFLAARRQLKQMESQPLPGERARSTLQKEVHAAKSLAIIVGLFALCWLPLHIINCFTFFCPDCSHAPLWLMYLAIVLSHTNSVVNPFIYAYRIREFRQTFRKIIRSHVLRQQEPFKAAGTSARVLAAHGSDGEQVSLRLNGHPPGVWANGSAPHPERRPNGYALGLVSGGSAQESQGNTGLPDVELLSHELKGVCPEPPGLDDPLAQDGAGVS

[2] = biological target: T1, Adenosine receptor A2a; assay: Binding affinity to human A2A adenosine receptor expressed in HEK293 cells after 1 hr by fluorescence polarization assay; assay type: cell-based
[3] = biological target: T1, Adenosine receptor A2a; assay: Binding affinity to C-terminal 10xHis and 1D4-tagged C-terminal-truncated human A2A adenosine receptor (1 to 316 residues) expressed in Pichia pastoris expression system at 8 nM after 1 hr by fluorescence polarization assay; details: read-out: Kd(app)
[4] = biological target: T1, Adenosine receptor A2a; assay: Binding affinity to C-terminal 10xHis and 1D4-tagged C-terminal-truncated human A2A adenosine receptor (1 to 316 residues) expressed in Pichia pastoris expression system at 1 nM after 1 hr by fluorescence polarization assay; details: read-out: Kd(app)
[5] = biological target: T1, Adenosine receptor A2a; assay: Binding affinity to C-terminal 10xHis and 1D4-tagged C-terminal-truncated human A2A adenosine receptor (1 to 316 residues) expressed in Pichia pastoris expression system at 2 nM after 1 hr by fluorescence polarization assay; details: read-out: Kd(app)
[6] = biological target: T1, Adenosine receptor A2a; assay: Binding affinity to C-terminal 10xHis and 1D4-tagged C-terminal-truncated human A2A adenosine receptor (1 to 316 residues) expressed in Pichia pastoris expression system at 4 nM after 1 hr by fluorescence polarization assay; details: read-out: Kd(app)

pKi [1]	pKd [2]	pKd [3]	pKd [4]	pKd [5]	pKd [6]	Compound
5.82						Nc1nc2c(cnn2Cc2ccc(C3(C(F)(F)F)N=N3)cc2)c2nc(-c3ccco3)nn12
7.40						Nc1nc2nn(Cc3ccc(C4(C(F)(F)F)N=N4)cc3)cc2c2nc(-c3ccco3)nn12
	7.78	7.31	7.54	7.51	7.37	N=c1ccc2c(-c3ccc(C(=O)NCCNC(=O)COc4ccc(CCCn5ncc6c5nc(N)n5nc(-c7ccco7)nc65)cc4)cc3C(=O)O)c3ccc(N)c(S(=O)(=O)O)c3oc-2c1S(=O)(=O)O
